For orientation: Solubility means how much of the substance goes into solution per volume.

Converted amounts (≈) assume the structure as drawn.

The text below walks through data of patent US20140350285A1, “NOVEL POLYMORPHS OF N-[2-AMINO-4-(4-FLUOROBENZYLAMINO)-PHENYL] CARBAMIC ACID ETHYL ESTER AND PROCESSES THEREOF” (SYMED LABS LIMITED, priority 2012, published 2014).

A short description of series [1]: Polymorphic stability on storage, analysed by XRPD. It counts as physicochemical. Particulars: stored at 25° C.±2° C., about 70% RH (result sentence: about 76% RH), 6 weeks.
Series [2] is described as follows: Chemical and polymorphic stability under stability testing conditions. The series is classed as physicochemical. Particulars: 25±2° C. and 75% RH, inert atmosphere.
Series [3] is described as follows: Comparative solubility profile of crystalline forms in diluents.
[4] abbreviates: diluent: Solvent Methylene chloride.

Take `CCOC(=O)Nc1ccc(NCc2ccc(F)cc2)cc1N` [Form-I, N-[2-amino-4-(4-fluorobenzylamino)-phenyl]carbamic acid ethyl ester]: the “Polymorphic stability (XRPD)” value in series [1] is reported as “polymorphically stable”. Also, in series [2], the “Chemical and polymorphic stability” value was “substantially stable chemically and polymorphically”. The “Solubility profile compared to known polymorphs (crystalline modifications A, B, and C)” value in series [3] was “better solubility profile”. Besides, the Solubility in series [3] (diluent: Solvent Acetone) was 290 mg/mL (≈ 956 mM); in series [3] (diluent: Solvent Alcohol (96%)), 25 mg/mL (≈ 82.4 mM); in series [3] (diluent: Solvent DMSO) it was 700 mg/mL (≈ 2310 mM); in series [3] (setting [4]), 40 mg/mL (≈ 132 mM); in series [3] (diluent: Water), less than 0.1 mg/mL; in series [3] (diluent: pH Buffer 1.2 pH), 10 mg/mL (≈ 33 mM). In addition, the Solubility in series [3] (diluent: pH Buffer 4.5 pH) and in series [3] (diluent: pH Buffer 8.5 pH) was less than 0.1 mg/mL throughout.
For `CCOC(=O)Nc1ccc(NCc2ccc(F)cc2)cc1N` [Form-II, N-[2-amino-4-(4-fluorobenzylamino)-phenyl]carbamic acid ethyl ester], in series [1], the “Polymorphic stability (XRPD)” value is recorded as “polymorphically stable”. Moreover, the “Chemical and polymorphic stability” value in series [2] was “substantially stable chemically and polymorphically”. The “Solubility profile compared to known polymorphs (crystalline modifications A, B, and C)” value in series [3] is “better solubility profile”. The Solubility is 250 mg/mL (≈ 824 mM) in series [3] (diluent: Solvent Acetone); 24 mg/mL (≈ 79.1 mM) in series [3] (diluent: Solvent Alcohol (96%)); 700 mg/mL (≈ 2310 mM) in series [3] (diluent: Solvent DMSO); 70 mg/mL (≈ 231 mM) in series [3] (setting [4]); less than 0.1 mg/mL in series [3] (diluent: Water); 10 mg/mL (≈ 33 mM) in series [3] (diluent: pH Buffer 1.2 pH). Further, the Solubility in series [3] (diluent: pH Buffer 4.5 pH) and in series [3] (diluent: pH Buffer 8.5 pH) was less than 0.1 mg/mL throughout.
Take `CCOC(=O)Nc1ccc(NCc2ccc(F)cc2)cc1N` [Modification-A, N-[2-amino-4-(4-fluorobenzylamino)-phenyl]carbamic acid ethyl ester]: the Solubility in series [3] (diluent: Solvent Acetone) is recorded as 280 mg/mL (≈ 923 mM); in series [3] (diluent: Solvent Alcohol (96%)), 23 mg/mL (≈ 75.8 mM); in series [3] (diluent: Solvent DMSO) it was 800 mg/mL (≈ 2640 mM); in series [3] (setting [4]), 50 mg/mL (≈ 165 mM); in series [3] (diluent: Water) it was less than 0.1 mg/mL; in series [3] (diluent: pH Buffer 1.2 pH), 13 mg/mL (≈ 42.9 mM). Further, the Solubility in series [3] (diluent: pH Buffer 4.5 pH) and in series [3] (diluent: pH Buffer 8.5 pH) was less than 0.1 mg/mL throughout.
For the molecule `CCOC(=O)Nc1ccc(NCc2ccc(F)cc2)cc1N` [Modification-B, N-[2-amino-4-(4-fluorobenzylamino)-phenyl]carbamic acid ethyl ester], the Solubility in series [3] (diluent: Solvent Acetone) is on record as 280 mg/mL (≈ 923 mM); in series [3] (diluent: Solvent Alcohol (96%)), 22 mg/mL (≈ 72.5 mM); in series [3] (diluent: Solvent DMSO), 700 mg/mL (≈ 2310 mM); in series [3] (setting [4]) it was 80 mg/mL (≈ 264 mM); in series [3] (diluent: Water), less than 0.1 mg/mL; in series [3] (diluent: pH Buffer 1.2 pH), 10 mg/mL (≈ 33 mM). The Solubility in series [3] (diluent: pH Buffer 4.5 pH) and in series [3] (diluent: pH Buffer 8.5 pH) was less than 0.1 mg/mL each time.
Turning to `CCOC(=O)Nc1ccc(NCc2ccc(F)cc2)cc1N` [Modification-C, N-[2-amino-4-(4-fluorobenzylamino)-phenyl]carbamic acid ethyl ester], the Solubility in series [3] (DMSO, organic solvent or mixture, Solubility, diluent: Solvent DMSO) is 700 mg/mL (≈ 2310 mM); in series [3] (acetone, organic solvent or mixture, Solubility, diluent: Solvent Acetone) it was 310 mg/mL (≈ 1020 mM); in series [3] (alcohol (96%), organic solvent or mixture, Solubility, diluent: Solvent Alcohol (96%)), 16 mg/mL (≈ 52.7 mM); in series [3] (methylene chloride, organic solvent or mixture, Solubility, diluent: Solvent Methylene chloride), 50 mg/mL (≈ 165 mM); in series [3] (pH buffer, pH 1.2, simulated gastric fluid, Solubility, diluent: pH Buffer 1.2 pH), 11 mg/mL (≈ 36.3 mM); in series [3] (pH buffer, pH 4.5, aqueous buffer, Solubility, diluent: pH Buffer 4.5 pH), less than 0.1 mg/mL. Besides, the Solubility in series [3] (pH buffer, pH 8.5, aqueous buffer, Solubility, diluent: pH Buffer 8.5 pH) is less than 0.1 mg/mL; in series [3] (water, Solubility, diluent: Water), less than 0.1 mg/mL.
